Test results: ChEMBL document CHEMBL1154294, “An approach to the site-selective diversification of apoptolidin A with peptide-based catalysts” (J Nat Prod, 2009)

Legend:
[1] = target: ATP synthase subunit beta, mitochondrial (Saccharomyces cerevisiae S288c, UniProt P00830); assay: Inhibition of yeast mitochondrial F0F1-ATPase
[2] = Antiproliferative activity against rat 3Y1 cells after 3 days by tetrazolium based cell counting assay
[3] = Antiproliferative activity against Adenovirus type 12 E1A transformed rat 3Y1cells after 3 days by tetrazolium based cell counting assay; conditions: 72 h
NCI-H292 = assay: Cytotoxicity activity in human NCI-H292 cells after 48 hrs by thiazolyl blue tetrazolium bromide assay; type: functional, cell-based; conditions: NCI-H292, 48 h

Sequence of ATP synthase subunit beta, mitochondrial (P00830 whole entry): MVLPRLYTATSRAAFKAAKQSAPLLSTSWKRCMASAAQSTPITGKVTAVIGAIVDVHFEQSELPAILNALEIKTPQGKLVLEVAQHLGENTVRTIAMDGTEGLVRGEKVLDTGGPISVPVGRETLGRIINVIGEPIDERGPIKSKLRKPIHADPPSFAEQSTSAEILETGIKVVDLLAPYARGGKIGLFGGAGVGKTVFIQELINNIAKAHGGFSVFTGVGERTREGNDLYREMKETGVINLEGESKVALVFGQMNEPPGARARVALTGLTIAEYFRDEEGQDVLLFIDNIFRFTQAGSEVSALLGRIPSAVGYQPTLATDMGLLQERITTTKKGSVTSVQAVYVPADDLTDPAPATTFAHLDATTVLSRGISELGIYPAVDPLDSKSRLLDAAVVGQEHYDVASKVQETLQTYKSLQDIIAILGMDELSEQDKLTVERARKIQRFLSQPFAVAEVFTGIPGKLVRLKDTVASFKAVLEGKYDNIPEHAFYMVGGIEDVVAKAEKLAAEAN

Row | SMILES | IC50 [1] | GI50 at 72 h [2] | GI50 [3] | EC50 (NCI-H292)
1 | COC[C@@H](CC1O[C@@](O)([C@H](O)C2CC(=O)/C(C)=C/C(C)=C/C(C)=C/[C@@H](C)[C@H](O[C@@H]3O[C@@H](C)[C@H](OC)[C@@H](O)[C@@H]3OC(=O)c3ccccc3)/C=C/C(C)=C/CC[C@H](O)[C@@H](OC)C2)[C@H](C)[C@@H](O)[C@H]1C)O[C@H]1C[C@](C)(O)[C@@H](O[C@H]2C[C@@H](OC)[C@H](O)[C@@H](C)O2)[C@H](C)O1 (some centres not stated) | 300 nM | > 1000 nM | 3.6 nM | 
2 | COC[C@@H](CC1O[C@@](O)([C@H](O)C2CC(=O)/C(C)=C/C(C)=C/C(C)=C/[C@@H](C)[C@H](O[C@@H]3O[C@@H](C)[C@H](OC)[C@@H](O)[C@@H]3O)/C=C/C(C)=C/CC[C@H](O)[C@@H](OC)C2)[C@H](C)[C@@H](OC(C)=O)[C@H]1C)O[C@H]1C[C@](C)(O)[C@@H](O[C@H]2C[C@@H](OC)[C@H](OC(C)=O)[C@@H](C)O2)[C@H](C)O1 (some centres not stated) | 400 nM | > 600 nM | 9.5 nM | 
3 | COC[C@@H](CC1O[C@@](O)([C@H](O)C2CC(=O)/C(C)=C/C(C)=C/C(C)=C/[C@@H](C)[C@H](O[C@@H]3O[C@@H](C)[C@H](OC)[C@@H](O)[C@@H]3O)/C=C/C(C)=C/CC[C@H](O)[C@@H](OC)C2)[C@H](C)[C@@H](O)[C@H]1C)O[C@H]1C[C@](C)(O)[C@@H](O[C@H]2C[C@@H](OC)[C@H](OC(C)=O)[C@@H](C)O2)[C@H](C)O1 (some centres not stated) | 800 nM | > 1000 nM | 9.8 nM | 
4 | COC[C@@H](CC1O[C@@](O)([C@H](O)C2CC(=O)/C(C)=C/C(C)=C/C(C)=C/[C@@H](C)[C@H](O[C@@H]3O[C@@H](C)[C@H](OC)[C@@H](O)[C@@H]3OC(C)=O)/C=C/C(C)=C/CC[C@H](O)[C@@H](OC)C2)[C@H](C)[C@@H](O)[C@H]1C)O[C@H]1C[C@](C)(O)[C@@H](O[C@H]2C[C@@H](OC)[C@H](O)[C@@H](C)O2)[C@H](C)O1 (some centres not stated) |  |  |  | 60 nM
5 | COC[C@@H](CC1O[C@@](O)([C@H](OC(C)=O)C2CC(=O)/C(C)=C/C(C)=C/C(C)=C/[C@@H](C)[C@H](O[C@@H]3O[C@@H](C)[C@H](OC)[C@@H](O)[C@@H]3OC(C)=O)/C=C/C(C)=C/CC[C@H](O)[C@@H](OC)C2)[C@H](C)[C@@H](O)[C@H]1C)O[C@H]1C[C@](C)(O)[C@@H](O[C@H]2C[C@@H](OC)[C@H](OC(C)=O)[C@@H](C)O2)[C@H](C)O1 (some centres not stated) |  |  |  | 48 nM
6 | COC[C@@H](CC1O[C@@](O)([C@H](O)C2CC(=O)/C(C)=C/C(C)=C/C(C)=C/[C@@H](C)[C@H](O[C@@H]3O[C@@H](C)[C@H](OC)[C@@H](OC(C)=O)[C@@H]3O)/C=C/C(C)=C/CC[C@H](O)[C@@H](OC)C2)[C@H](C)[C@@H](O)[C@H]1C)O[C@H]1C[C@](C)(O)[C@@H](O[C@H]2C[C@@H](OC)[C@H](O)[C@@H](C)O2)[C@H](C)O1 (some centres not stated) | 400 nM | > 1000 nM | 2.7 nM | 
7 | COC[C@@H](CC1O[C@@](O)([C@H](OC(C)=O)C2CC(=O)/C(C)=C/C(C)=C/C(C)=C/[C@@H](C)[C@H](O[C@@H]3O[C@@H](C)[C@H](OC)[C@@H](OC(C)=O)[C@@H]3OC(C)=O)/C=C/C(C)=C/CC[C@H](O)[C@@H](OC)C2)[C@H](C)[C@@H](O)[C@H]1C)O[C@H]1C[C@](C)(O)[C@@H](O[C@H]2C[C@@H](OC)[C@H](O)[C@@H](C)O2)[C@H](C)O1 (some centres not stated) |  |  |  | 48 nM
8 | COC[C@@H](CC1O[C@@](O)([C@H](OC(C)=O)C2CC(=O)/C(C)=C/C(C)=C/C(C)=C/[C@@H](C)[C@H](O[C@@H]3O[C@@H](C)[C@H](OC)[C@@H](O)[C@@H]3O)/C=C/C(C)=C/CC[C@H](O)[C@@H](OC)C2)[C@H](C)[C@@H](O)[C@H]1C)O[C@H]1C[C@](C)(O)[C@@H](O[C@H]2C[C@@H](OC)[C@H](O)[C@@H](C)O2)[C@H](C)O1 (some centres not stated) | 1100 nM | > 1000 nM | 11 nM | 
9 | COC[C@@H](CC1O[C@@](O)([C@H](OC)C2CC(=O)/C(C)=C/C(C)=C/C(C)=C/[C@@H](C)[C@H](O[C@@H]3O[C@@H](C)[C@H](OC)[C@@H](O)[C@@H]3O)/C=C/C(C)=C/CC[C@H](O)[C@@H](OC)C2)[C@H](C)[C@@H](O)[C@H]1C)O[C@H]1C[C@](C)(O)[C@@H](O[C@H]2C[C@@H](OC)[C@H](O)[C@@H](C)O2)[C@H](C)O1 (some centres not stated) | 2800 nM | > 1000 nM | 12 nM | 
10 | COC[C@@H](CC1O[C@@](O)([C@H](O)C2CC(=O)/C(C)=C/C(C)=C/C(C)=C/[C@@H](C)[C@H](O[C@@H]3O[C@@H](C)[C@H](OC)[C@@H](O)[C@@H]3O)/C=C/C(C)=C/CC[C@H](OC(C)=O)[C@@H](OC)C2)[C@H](C)[C@@H](O)[C@H]1C)O[C@H]1C[C@](C)(O)[C@@H](O[C@H]2C[C@@H](OC)[C@H](O)[C@@H](C)O2)[C@H](C)O1 (some centres not stated) | 800 nM | > 1000 nM | 56 nM | 
11 | COC[C@@H](CC1O[C@@](O)([C@@H]2OC(=O)/C(C)=C/C(C)=C/C(C)=C/[C@@H](C)[C@H](O[C@@H]3O[C@@H](C)[C@H](OC)[C@@H](O)[C@@H]3O)/C=C/C(C)=C/CC[C@H](O)[C@@H](OC)C[C@@H]2O)[C@H](C)[C@@H](O)[C@H]1C)O[C@H]1C[C@](C)(O)[C@@H](O[C@H]2C[C@@H](OC)[C@H](O)[C@@H](C)O2)[C@H](C)O1 (some centres not stated) [ISOAPOPTOLIDIN] | 17000 nM | > 1000 nM | 9 nM | 
